Results published in patent publication US20240173377A1, “RETRO - INVERSO REGULATORY T CELL EPITOPES” (EpiVax, Inc., priority 2020, published 2024).
“Also recorded” adds a separate entry of the source.

Assays:
CD4+ T cells = assay: Tetanus Toxoid bystander assay, CD4+ T cell proliferation in PBMC (CFSE); type: cell-based, human; settings: TT-treated PBMCs of four donors; versus L-amino acid counterparts (SEQ ID NOS: 114 and 115); FIGS. 7A-7B, 8A-8B
Description: The purpose of this experiment is to establish the ability of the instantly-disclosed retro-inverso Tregitopes (e.g., any one or more of SEQ ID NO: 1-29 and 42-107 and/or fragments and variants thereof, and optionally 1 to 12 additional amino acids distributed in any ratio on the N-terminus and/or C-terminus of the polypeptide of SEQ ID NOS: 1-29 and 42-107 as disclosed herein, wherein each of the amino acids of SEQ ID NOS: 1-29 and 42-107 (and in aspects, the optional extensions thereof) except for glycine are in the D-amino acid configuration) of the instant disclosure to suppress the proliferation CD4+ Tcells, including antigen stimulated CD4+ effector memory T cells, which in aspects is by either direct (engagement and activation of TReg) or indirect (modulation of APC phenotype) means. […]

[1] = target: Class II HLA alleles (HLA DRB1); assay: HLA binding assay (soluble MHC, competition with labeled control peptide); parameters: species or system human; settings: retro-inverso peptide versus L-amino acid counterpart (SEQ ID NOS: 114 and 115); HLA DRB1 *0101, *0301, *0401, *0401, *0701, *1101, *1301 and *1501; FIG. 3
Method: HLA Binding Assay. Binding activity is analyzed at EpiVax (Providence, Rhode Island). The binding assay used (Steere A C et al., (2006), J Exp Med, 2003(4):961-71) yields an indirect measure of peptide-MHC affinity. Soluble HLA molecules are loaded onto a 96-well plate with the unlabeled experimental retro-inverso Tregitopes and labeled control peptide. Once the binding mixture reaches steady equilibrium (at 24 hours), the HLA-retro-inverso Tregitope complexes are captured on an ELISA plate coated with anti-human DR antibody and detected with a Europium-linked probe for the label (PerkinElmer, Waltham, MA). Time-resolved fluorescence measuring bound labeled control peptide is assessed by a SpectraMax® M5 unit (Spectramax, Radnor, PA). Binding of experimental retro-inverso Tregitopes is expressed as the percent inhibition of the labeled control peptide ([…]). The percent inhibition values for each experimental retro-inverso Tregitope (across a range of molar concentrations) is used to calculate the concentration at which it inhibits 50% of the labeled control […] specific binding, i.e. the retro-inverso Tregitope's IC50. […]

[2] = tested on: PBMCs from lupus patients; settings: randomly selected lupus patients; cited from earlier work
human DR molecules = settings: cited from earlier work

Sequence | ability to reduce CD4+ cell proliferation (CD4+ T cells) | IC50 values, binding to HLA DRB1 alleles [1] | lupus patients whose PBMCs contain T cells that proliferate in response to the peptide [2] [%] | binding to soluble HLA class II molecules (human DR molecules)
DQHLVTLVSVVTYTSNYQEE [SEQ ID NO: 16] | comparable ability | scored comparably; also recorded: comparable affinity |  | 
KGYIFSHGTFHITLI [SEQ ID NO: 100] | comparable ability | scored comparably; also recorded: comparable affinity |  | 
RIHMVYSKRSGKPRGYAFIEY (listed as Homo sapiens) [peptide 131-151] |  |  | 40 | binds to a large panel of human DR molecules
